Test results reported in patent publication US20180282323A1, “Mesoionic imidazole derivatives as insecticides” (BAYER CROPSCIENCE AKTIENGESELLSCHAFT, priority 2015, published 2018).

Assay: log P by HPLC on reversed-phase column (EEC directive 79/831 Annex V.A8)
Format: physicochemical
Details: HPLC on reversed-phase column
Protocol: a) The determination of the [M+H]^+ by LC-MS in the acidic range was effected at pH 2.7, with acetonitrile (containing 0.1% formic acid) and water as eluents; linear gradient from 10% acetonitrile to 95% acetonitrile, instrument: Agilent 1100 LC system, Agilent MSD system, HTS PAL.
The log P values reported in the tables and preparation examples above were determined in accordance with EEC directive 79/831 Annex V.A8 by HPLC (High Performance Liquid Chromatography) using a reversed-phase column (C18). Temperature 43° C.

SMILES | log p a)
Cc1cnc(Cn2c([O-])c(C(=O)NCC(F)(F)F)[n+]3ccccc23)cn1 [Example I-1-242] | 1.57
O=C(Nc1nccs1)c1c([O-])n(Cc2ccc(Cl)nc2)c2cccc[n+]12 [Example I-1-324] | 1.93
N#CC1(NC(=O)c2c([O-])n(Cc3cnc(Cl)s3)c3cccc[n+]23)CC1 [Example I-1-270] | 1.58
COc1cc(NC(=O)c2c([O-])n(Cc3ccc(Cl)nc3)c3cccc[n+]23)ccn1 [Example I-1-329] | 1.41
O=C(Nc1cnccc1Cl)c1c([O-])n(Cc2cnc(Cl)s2)c2cccc[n+]12 [Example I-1-334] | 1.81
Cc1cccnc1NC(=O)c1c([O-])n(Cc2cnc(Cl)s2)c2cccc[n+]12 [Example I-1-337] | 0.91
COC(=O)c1c([O-])n(Cc2cnc(Cl)cn2)c2c(C)ccc[n+]12 [Example I-1-281] | 1.47
Cc1cccc(F)c1NC(=O)c1c([O-])n(Cc2cnc(Cl)s2)c2cccc[n+]12 [Example I-1-322] | 3.1
O=C(Nc1c(Cl)ncnc1Cl)c1c([O-])n(Cc2cnc(Cl)s2)c2cccc[n+]12 [Example I-1-331] | 2.17
Cc1ccc[n+]2c(C(=O)NCC3CCCCC3)c([O-])n(Cc3ccc(Cl)nc3)c12 [Example I-1-255] | 3.21
Cc1ccc[n+]2c(C(=O)NCC3CCCC3)c([O-])n(Cc3ccc(Cl)nc3)c12 [Example I-1-256] | 2.8
Cc1ccc[n+]2c(C(=O)NC3(C#N)CCCCC3)c([O-])n(Cc3ccc(Cl)nc3)c12 [Example I-1-263] | 2.62
O=C(c1c([O-])n(Cc2cnc(Cl)s2)c2cccc[n+]12)N1CCCC1 [Example I-1-273] | 1.52
Cc1ccc[n+]2c(C(=O)NC3CCCCC3)c([O-])n(Cc3ccc(Cl)nc3)c12 [Example I-1-253] | 2.72
Cc1ccc[n+]2c(C(=O)Nc3ccccn3)c([O-])n(Cc3ccc(Cl)nc3)c12 [Example I-1-264] | 1.68
Cn1nccc1NC(=O)c1c([O-])n(Cc2cnc(Cl)s2)c2cccc[n+]12 [Example I-1-330] | 1.6
O=C(Nc1cccc(OC(F)(F)F)c1)c1c([O-])n(Cc2ccc(Cl)nc2)c2cccc[n+]12 [Example I-1-298] | 3.55
O=C(Nc1ncccc1C(F)(F)F)c1c([O-])n(Cc2cnc(Cl)s2)c2cccc[n+]12 [Example I-1-336] | 1.99
O=C(Nc1cc(Cl)cc(Cl)c1)c1c([O-])n(Cc2ccc(Cl)nc2)c2cccc[n+]12 [Example I-1-295] | 4.1
Cc1cccc(NC(=O)c2c([O-])n(Cc3ccc(Cl)nc3)c3cccc[n+]23)c1 [Example I-1-300] | 1.41
O=C(Nc1nccs1)c1c([O-])n(Cc2cnc(Cl)s2)c2cccc[n+]12 [Example I-1-318] | 2.05
O=C(Nc1ncns1)c1c([O-])n(Cc2cnc(Cl)s2)c2cccc[n+]12 [Example I-1-338] | 1.98
CNC(=O)c1c([O-])n(Cc2cnc(Cl)cn2)c2cccc[n+]12 [Example I-1-280] | 1.15
O=C(Nc1ncccc1[N+](=O)[O-])c1c([O-])n(Cc2cnc(Cl)s2)c2cccc[n+]12 [Example I-1-320] | 1.91

Same assay, conditions: HPLC on reversed-phase column (footnote a)

SMILES | log p
N#Cc1cc[n+]2c(C(=O)CCl)c([O-])n(Cc3ccc(Cl)nc3)c2c1 [Example I-1-067] | 1.83
O=C(NCCc1ccc(Cl)cc1)c1c([O-])n(Cc2cnc(Cl)s2)c2cccc[n+]12 [Example I-1-139] | 3
Cc1ccc[n+]2c(C(=O)Cn3cc(Cl)cn3)c([O-])n(Cc3cnc(Cl)s3)c12 [Example I-1-095] | 2.27
O=C(CCl)c1c([O-])n(Cc2ccc(C(F)(F)F)nc2)c2cccc[n+]12 [Example I-1-163] | 1.9
O=C(CCl)c1c([O-])n(Cc2cncc(Cl)c2)c2cccc[n+]12 [Example I-1-162] | 1.53
O=C(COc1ccc(Cl)cc1)c1c([O-])n(Cc2cnc(Cl)s2)c2cccc[n+]12 [Example I-1-074] | 2.84
O=C(NC1CC1)c1c([O-])n(Cc2cnc(Cl)s2)c2cc(C(F)(F)F)cc[n+]12 [Example I-1-141] | 2.38
COC(=O)c1c([O-])n(Cc2ccc(Cl)nc2)c2c(OC(F)(F)F)ccc[n+]12 [Example I-1-189] | 1.84
O=C(Cn1cccn1)c1c([O-])n(Cc2ccc(Cl)nc2)c2c(F)ccc[n+]12 [Example I-1-105] | 1.55
COC(=O)c1c([O-])n(Cc2ccc(Cl)nc2)c2c(Cl)ccc[n+]12 [Example I-1-130] | 1.56
O=C(CCl)c1c([O-])n(Cc2ccc(Cl)nc2)c2ccc(F)c[n+]12 [Example I-1-099] | 1.78
O=C(CCl)c1c([O-])n(Cc2ccc(Cl)nc2)c2cc(C(F)(F)F)cc[n+]12 [Example I-1-063] | 2.52
CCNC(=O)c1c([O-])n(Cc2cnc(Cl)s2)c2cccc[n+]12 [Example I-1-134] | 1.58
O=C(CCl)c1c([O-])n(Cc2ccc(Cl)nc2)c2c(F)ccc[n+]12 [Example I-1-100] | 1.81
Cc1ccc2n(Cc3ccc(Cl)nc3)c([O-])c(C(=O)Cn3cccn3)[n+]2c1 [Example I-1-104] | 1.63
COC(=O)c1c([O-])n(Cc2ccc(Cl)nc2)c2c(F)cc(F)c[n+]12 [Example I-1-156] | 1.56

SMILES | log p
O=C(COc1cccc(Cl)c1)c1c([O-])n(Cc2cnc(Cl)s2)c2cccc[n+]12 [Example I-1-073] | 2.87
O=C(NC1CC1)c1c([O-])n(Cc2cnc(Cl)s2)c2c(Cl)ccc[n+]12 [Example I-1-140] | 2.01
O=C(Cn1cccn1)c1c([O-])n(Cc2ccc(Cl)nc2)c2cc(C(F)(F)F)cc[n+]12 [Example I-1-102] | 2.08
O=C(NC1CC1)c1c([O-])n(Cc2ccc(Cl)nc2)c2c(F)cc(F)c[n+]12 [Example I-1-197] | 1.99
COC(=O)c1c([O-])n(Cc2ccc(Cl)nc2)c2cc(C(F)(F)F)cc[n+]12 [Example I-1-132] | 1.93
O=C(Cn1ccnc1)c1c([O-])n(Cc2cnc(Cl)s2)c2cccc[n+]12 [Example I-1-050] | 0.46
O=C(CCl)c1c([O-])n(Cc2ccc(Cl)nc2)c2c(Cl)ccc[n+]12 [Example I-1-090] | 1.99
CNC(=O)c1ccn(CC(=O)c2c([O-])n(Cc3cnc(Cl)s3)c3cccc[n+]23)n1 [Example I-1-048] | 1.27
O=C(NCc1ccc(Cl)cc1)c1c([O-])n(Cc2cnc(Cl)s2)c2cccc[n+]12 [Example I-1-149] | 2.86
O=C(NC1CC1)c1c([O-])n(Cc2ccc(Cl)nc2)c2c(F)ccc[n+]12 [Example I-1-127] | 1.82
O=C(NC1CC1)c1c([O-])n(Cc2cnc(Cl)s2)c2cc(Cl)cc[n+]12 [Example I-1-184] | 2.14
COC(=O)c1c([O-])n(Cc2ccc(Cl)nc2)c2c(SC)ccc[n+]12 [Example I-1-194] | 1.64
O=C(COc1ccccc1)c1c([O-])n(Cc2ccc(Cl)nc2)c2cccc[n+]12 [Example I-1-007] | 2.2
CNCC(=O)c1c([O-])n(Cc2cnc(Cl)s2)c2cccc[n+]12 [Example I-1-058] | 0.31
CCNCC(=O)c1c([O-])n(Cc2ccc(Cl)nc2)c2cccc[n+]12 [Example I-1-024] | 0.42
